# Calls of active or inactive are those of the source. No cut-off for these calls is given here.
# Test system: Mycobacterium tuberculosis
# Test: Antimicrobial activity against Mycobacterium bovis BCG up to 100 uM after 24 to 48 hrs by broth microdilution method
# Type: functional, organism-based
# Conditions: variant bovis BCG
row,SMILES,Activity
1,COc1ccc(O)c(/C=N/NC(=O)c2ccc3c4c(ccc3c2)N2Cc3c(ccc5cc(C(=O)N/N=C/c6cc(OC)ccc6O)ccc35)N(C4)C2)c1,inactive
2,COc1cccnc1/C=N/NC(=O)c1ccc2c3c(ccc2c1)N1Cc2c(ccc4cc(C(=O)N/N=C/c5ncccc5OC)ccc24)N(C3)C1,inactive
3,Cc1ccc(O)c(/C=N/NC(=O)c2ccc3c4c(ccc3c2)N2Cc3c(ccc5cc(C(=O)N/N=C/c6cc(C)ccc6O)ccc35)N(C4)C2)c1,inactive
4,O=C(N/N=C/c1cc(O)ccc1O)c1ccc2c3c(ccc2c1)N1Cc2c(ccc4cc(C(=O)N/N=C/c5cc(O)ccc5O)ccc24)N(C3)C1,inactive
5,O=C(N/N=C/c1cc(F)ccc1O)c1ccc2c3c(ccc2c1)N1Cc2c(ccc4cc(C(=O)N/N=C/c5cc(F)ccc5O)ccc24)N(C3)C1,inactive
6,O=C(N/N=C/c1cc(Cl)ccc1O)c1ccc2c3c(ccc2c1)N1Cc2c(ccc4cc(C(=O)N/N=C/c5cc(Cl)ccc5O)ccc24)N(C3)C1,inactive
7,O=C(N/N=C/c1nccc2ccccc12)c1ccc2c3c(ccc2c1)N1Cc2c(ccc4cc(C(=O)N/N=C/c5nccc6ccccc56)ccc24)N(C3)C1,inactive
8,O=C(NN=C(c1ccccn1)c1ccccn1)c1ccc2c3c(ccc2c1)N1Cc2c(ccc4cc(C(=O)NN=C(c5ccccn5)c5ccccn5)ccc24)N(C3)C1,inactive
9,O=C(N/N=C/c1ccccc1O)c1ccc2c3c(ccc2c1)N1Cc2c(ccc4cc(C(=O)N/N=C/c5ccccc5O)ccc24)N(C3)C1,inactive
10,COC(=O)c1ccc(O)c(/C=N/NC(=O)c2ccc3c4c(ccc3c2)N2Cc3c(ccc5cc(C(=O)N/N=C/c6cc(C(=O)OC)ccc6O)ccc35)N(C4)C2)c1,inactive
11,O=C(N/N=C/c1cc([N+](=O)[O-])ccc1O)c1ccc2c3c(ccc2c1)N1Cc2c(ccc4cc(C(=O)N/N=C/c5cc([N+](=O)[O-])ccc5O)ccc24)N(C3)C1,inactive
